The values that follow are results of earlier work, collected in US9629846B1, “Nutritional supplements for women desiring to become pregnant, and pregnant and nursing women” (Argent Development Group, LLC, priority 2013, dated 2017).

The conditions of data set [1]: nutrient depletion.
The conditions of data set [2]: dietary iron, heme versus non-heme.

With `CN(C)C(=N)N=C(N)N` [metformin], the “effect on folate, magnesium and Vitamin B12 levels” value in data set [1] is “reduce folate, magnesium, and Vitamin B12 levels”.
On to Heme iron, for which the absorption in data set [2] is 30%.
